# Data published in patent publication US6461997B1, “Triazole sulfones having herbicidal activity” (Monsanto Technology LLC, priority 1999, dated 2002).
# What was measured:
# [1] = system: SOLNI (black nightshade); experiment: Pre-emergence herbicidal activity, warm season; assay type: in vivo, Solanum nigrum; settings: for Pre-emergence activity (GR80) SOLNI: GR80 = lowest tested rate (300, 100, 30, 10 g/ha) with 80% or greater inhibition, approx. 14 days after treating, 30/21° C.
# Outline: (§1)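 Seeds sown in sterilised fertilised topsoil received surface-applied compound in 50:50 acetone/water, typically at 300, 100, 30 and 10 g/ha, then greenhouse-grown at 30/21° C (warm-season species) or 18/13° C (cool-season species). Percent inhibition versus untreated plants was scored at about 14 days, giving GR80; an asterisk marks activity short of 80% at the top rate.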
# [2] = system: CIRAR (canada thistle (seedling)); experiment: Pre-emergence herbicidal activity, warm season; assay type: in vivo, Cirsium arvense; settings: GR80 = lowest tested rate (300, 100, 30, 10 g/ha) with 80% or greater inhibition; approx. 14 days after treating; 30/21° C.
# Outline: as §1
# [3] = system: SORHA (johnsongrass (seedling)); experiment: Pre-emergence herbicidal activity, warm season; assay type: in vivo, Sorghum halepense; settings: for Pre-emergence activity (GR80) SORHA: GR80 = lowest tested rate (300, 100, 30, 10 g/ha) with 80% or greater inhibition, approx. 14 days after treating, 30/21° C.
# Outline: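 GR80 values derive from percent inhibition relative to untreated plants, read roughly 14 days after sowing and pre-emergence soil-surface treatment (compound in 50:50 acetone/water; rates typically 10, 30, 100, 300 g/ha). Warm-season weeds grew at 30/21° C day/night, cool-season ones at 18/13° C; an asterisk marks activity without reaching 80% at the highest rate.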
# [4] = system: POLCO (wild buckwheat); experiment: Pre-emergence herbicidal activity, cool season; assay type: in vivo, Polygonum convolvulus; settings: lowest tested rate with 80% or greater inhibition; rates 300, 100, 30, 10 g/ha; about 14 days
# Outline: as §1
# [5] = system: VERPE (creeping speedwell); experiment: Pre-emergence herbicidal activity, cool season; assay type: in vivo, Veronica persicaria; settings: lowest tested rate with 80% or greater inhibition; rates 300, 100, 30, 10 g/ha; about 14 days
# Outline: as §1
# [6] = system: AGSST (creeping bentgrass); experiment: Pre-emergence herbicidal activity, cool season; assay type: in vivo, Agrostis stolonifera; settings: GR80 = lowest tested rate (300, 100, 30, 10 g/ha) with 80% or greater inhibition; approx. 14 days after treating; 18/13° C.
# Outline: as §1
# [7] = system: SOLNI (black nightshade); experiment: Pre-plant incorporated (PPI) herbicidal activity, warm season; assay type: in vivo, Solanum nigrum
# Experimental: (§2) In another set of tests, the pre-plant incorporated (PPI) activity of compounds of this invention was evaluated on the same species as for the pre-emergence tests described above. In the PPI tests the following procedure, designed to simulate PPI application, was used.
# (§3) A pre-prepared topsoil mixture (described above) was placed in a pot and compacted to a depth of 1.0 to 1.25 cm from the top of the pot. Seeds of each of several monocotyledonous and dicotyledonous annual plant species were placed on top of the soil. A sufficient quantity of soil to cover the seeds and level fill the pot was weighed into an open container. A known amount of the test compound was dissolved or suspended in an organic solvent and applied by spraying to this cover soil. The cover soil was thoroughly mixed to distribute the test compound throughout the cover soil, and was then applied as a cover layer over the seeds. Untreated soil was used as a cover layer for control pots. After treatment the plants were placed in a greenhouse where they received 0.64 cm of overhead irrigation. All subsequent watering consisted of a light overhead mist and/or subirrigation as needed for germination and growth. Tables 9 and 10 below relate to warm season plant species which were placed after pre-emergence treatment in a greenhouse with a 30/21° C. day/night temperature regime. Tables 11 and 12 below relates to cool season plant species placed after pre-emergence treatment in a greenhouse or growth chamber with an 18/13° C. day/night temperature regime. Only the compounds of Examples 1, 6, 8, 11, 13 and 15-20 were included in PPI tests.
# (§4) Approximately 14 days after planting and treating, the plants were observed and herbicidal efficacy recorded as percent inhibition by comparison with untreated plants.
# [8] = system: BRAPP (broadleaf signalgrass); experiment: as above; assay type: in vivo, Brachiaria platyphylla
# Experimental: as §2, §3, §4
# [9] = system: SETVI (green foxtail); experiment: Pre-plant incorporated (PPI) herbicidal activity, cool season; assay type: in vivo, Setaria viridis
# Experimental: as §2, §3, §4
# [10] = system: POAAN (annual bluegrass); experiment: as above; assay type: in vivo, Poa annua; settings: weed, PPI application
# Experimental: as §2, §3, §4
# [11] = pre-plant incorporated, lowest tested rate with 80% or greater inhibition, about 14 days
structure (smiles),measurement,setting,value
"CCN(CC)C(=O)n1cnc(S(=O)(=O)C(F)(F)Br)n1 [Example 1, 3-(bromodifluoromethylsulfonyl)-1-(N,N-diethylcarbamoyl)-1,2,4-triazole]",Pre-emergence activity (GR80) SOLNI,[1],100 g/ha
same,inhibition at 10 g/ha,"[1]; Solanum nigrum, pre-emergence application, 10 g/ha, read-out: Percent inhibition, weed SOLNI",0%
same,inhibition at 30 g/ha,"[1]; Solanum nigrum, pre-emergence application, 30 g/ha, read-out: Percent inhibition, weed SOLNI",0%
same,inhibition at 100 g/ha,"[1]; Solanum nigrum, pre-emergence application, 100 g/ha, read-out: Percent inhibition, weed SOLNI",0%
same,inhibition at 300 g/ha,"[1]; Solanum nigrum, pre-emergence application, 300 g/ha, read-out: Percent inhibition, weed SOLNI",0%
same,inhibition at 900 g/ha,"[1]; Solanum nigrum, pre-emergence application, 900 g/ha, read-out: Percent inhibition, weed SOLNI",20%
same,Pre-emergence activity (GR80) CIRAR,[2],100 g/ha
same,Pre-emergence activity (GR80) SORHA,[3],30 g/ha
same,inhibition at 10 g/ha,"[3]; Sorghum halepense, pre-emergence application, 10 g/ha, read-out: Percent inhibition, weed SORHA",0%
same,inhibition at 30 g/ha,"[3]; Sorghum halepense, pre-emergence application, 30 g/ha, read-out: Percent inhibition, weed SORHA",0%
same,inhibition at 100 g/ha,"[3]; Sorghum halepense, pre-emergence application, 100 g/ha, read-out: Percent inhibition, weed SORHA",50%
same,inhibition at 300 g/ha,"[3]; Sorghum halepense, pre-emergence application, 300 g/ha, read-out: Percent inhibition, weed SORHA",70%
same,inhibition at 900 g/ha,"[3]; Sorghum halepense, pre-emergence application, 900 g/ha, read-out: Percent inhibition, weed SORHA",99%
same,"Pre-emergence activity GR80, POLCO",[4],[empty]
same,"Pre-emergence activity GR80, VERPE",[5],100 g/ha
same,Pre-emergence activity (GR80) AGSST,[6],30 g/ha
same,inhibition at 10 g/ha,"[7]; Solanum nigrum, PPI application, 10 g/ha, read-out: Percent inhibition SOLNI",0%
same,inhibition at 30 g/ha,"[7]; Solanum nigrum, PPI application, 30 g/ha, read-out: Percent inhibition SOLNI",0%
same,inhibition at 100 g/ha,"[7]; Solanum nigrum, PPI application, 100 g/ha, read-out: Percent inhibition SOLNI",0%
same,inhibition at 300 g/ha,"[7]; Solanum nigrum, PPI application, 300 g/ha, read-out: Percent inhibition SOLNI",75%
same,inhibition at 900 g/ha,"[7]; Solanum nigrum, PPI application, 900 g/ha, read-out: Percent inhibition SOLNI",100%
same,PPI activity (GR80) SOLNI,"[7]; pre-plant incorporated, GR80 = lowest tested rate with 80% or greater inhibition, approx. 14 days after treating, 30/21° C.",30 g/ha
same,inhibition at 10 g/ha,"[8]; Urochloa platyphylla, PPI application, 10 g/ha, read-out: Percent inhibition BRAPP",0%
same,inhibition at 30 g/ha,"[8]; Urochloa platyphylla, PPI application, 30 g/ha, read-out: Percent inhibition BRAPP",0%
same,inhibition at 100 g/ha,"[8]; Urochloa platyphylla, PPI application, 100 g/ha, read-out: Percent inhibition BRAPP",100%
same,inhibition at 300 g/ha,"[8]; Urochloa platyphylla, PPI application, 300 g/ha, read-out: Percent inhibition BRAPP",90%
same,inhibition at 900 g/ha,"[8]; Urochloa platyphylla, PPI application, 900 g/ha, read-out: Percent inhibition BRAPP",100%
same,"PPI activity GR80, BRAPP",[8]; [11],100 g/ha
same,inhibition at 30 g/ha,"[9]; Setaria viridis, weed, PPI application, 30 g/ha, read-out: Percent inhibition SETVI",80%
same,inhibition at 100 g/ha,"[9]; Setaria viridis, weed, PPI application, 100 g/ha, read-out: Percent inhibition SETVI",99%
same,inhibition at 300 g/ha,"[9]; Setaria viridis, weed, PPI application, 300 g/ha, read-out: Percent inhibition SETVI",100%
same,inhibition at 900 g/ha,"[9]; Setaria viridis, weed, PPI application, 900 g/ha, read-out: Percent inhibition SETVI",100%
same,"PPI activity GR80, SETVI",[9]; [11],100 g/ha
same,inhibition at 30 g/ha,"[10]; Poa annua, 30 g/ha, read-out: Percent inhibition POAAN",90%
same,inhibition at 100 g/ha,"[10]; Poa annua, 100 g/ha, read-out: Percent inhibition POAAN",99%
same,inhibition at 300 g/ha,"[10]; Poa annua, 300 g/ha, read-out: Percent inhibition POAAN",100%
same,inhibition at 900 g/ha,"[10]; Poa annua, 900 g/ha, read-out: Percent inhibition POAAN",100%
CCN(CC)C(=O)n1cnc(S(=O)(=O)C(F)(F)F)n1 [Example 2],Pre-emergence activity (GR80) SOLNI,[1],300 g/ha
same,Pre-emergence activity (GR80) CIRAR,[2],300 g/ha
same,Pre-emergence activity (GR80) SORHA,[3],100 g/ha
same,"Pre-emergence activity GR80, POLCO",[4],[empty]
same,"Pre-emergence activity GR80, VERPE",[5],10 g/ha
same,Pre-emergence activity (GR80) AGSST,[6],30 g/ha
same,Percent inhibition SOLNI,"[7]; PPI application, 30 g/ha",30%
same,Percent inhibition SOLNI,"[7]; PPI application, 100 g/ha",90%
same,Percent inhibition SOLNI,"[7]; PPI application, 300 g/ha",100%
same,Percent inhibition SOLNI,"[7]; PPI application, 900 g/ha",90%
same,Percent inhibition BRAPP,"[8]; PPI application, 30 g/ha",80%
same,Percent inhibition BRAPP,"[8]; PPI application, 100 g/ha",50%
same,Percent inhibition BRAPP,"[8]; PPI application, 300 g/ha",90%
same,Percent inhibition BRAPP,"[8]; PPI application, 900 g/ha",70%
same,Percent inhibition SETVI,"[9]; weed, PPI application, 30 g/ha",80%
same,Percent inhibition SETVI,"[9]; weed, PPI application, 100 g/ha",100%
same,Percent inhibition SETVI,"[9]; weed, PPI application, 300 g/ha",100%
same,Percent inhibition SETVI,"[9]; weed, PPI application, 900 g/ha",100%
same,Percent inhibition POAAN,[10]; 30 g/ha,80%
same,Percent inhibition POAAN,[10]; 100 g/ha,100%
same,Percent inhibition POAAN,[10]; 300 g/ha,100%
same,Percent inhibition POAAN,[10]; 900 g/ha,100%
